# Values of other authors in US9902985B2 (priority 2012, dated 2018).
# Like-named read-outs stand apart in the source and are kept apart here.
# Legend:
# Gram-positive organisms = settings: fold more potent than vancomycin
smiles,measurement,setting,value
C=C(C/C=C(\C)CCC=C(C)C)CCC(C)(C)/C=C/CC/C(C)=C/CO[C@@H](COP(=O)(O)O[C@H]1O[C@H](C(N)=O)[C@@](C)(O)[C@H](OC(N)=O)[C@H]1O[C@@H]1O[C@H](CO[C@@H]2O[C@H](CO)[C@@H](O)[C@H](O)[C@H]2O)[C@@H](O[C@@H]2O[C@H](C)[C@@H](O[C@@H]3O[C@H](C(=O)NC4=C(O)CCC4=O)[C@H](O)[C@H](O)[C@H]3O)[C@H](O)[C@H]2NC(C)=O)[C@H](O)[C@H]1NC(C)=O)C(=O)O [Moenomycin A],potency relative to vancomycin,Gram-positive organisms,a thousand times more potent
same,potency relative to vancomycin,Gram-positive organisms; listed as moenomycin,10-1000 times
same,absorption upon oral administration,,relatively poor
